Assay [1] concerns the target T1, Amine oxidase [flavin-containing] A (Homo sapiens, UniProt P21397).
T1 sequence (P21397 whole entry): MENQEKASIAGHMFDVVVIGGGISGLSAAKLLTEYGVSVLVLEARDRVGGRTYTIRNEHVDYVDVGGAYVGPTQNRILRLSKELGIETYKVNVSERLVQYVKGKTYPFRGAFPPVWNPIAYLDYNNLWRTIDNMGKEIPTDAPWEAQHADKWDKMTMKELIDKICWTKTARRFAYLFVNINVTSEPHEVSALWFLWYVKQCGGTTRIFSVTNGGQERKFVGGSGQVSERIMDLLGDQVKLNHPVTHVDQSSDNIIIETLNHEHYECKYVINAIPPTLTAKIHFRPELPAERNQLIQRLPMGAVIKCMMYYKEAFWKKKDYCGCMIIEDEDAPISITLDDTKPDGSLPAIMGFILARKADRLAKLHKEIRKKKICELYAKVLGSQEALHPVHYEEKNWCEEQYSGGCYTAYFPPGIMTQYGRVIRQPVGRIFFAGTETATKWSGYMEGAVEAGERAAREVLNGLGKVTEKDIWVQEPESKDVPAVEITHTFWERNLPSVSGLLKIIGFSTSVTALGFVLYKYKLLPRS
The assay can be described thus: DRUGMATRIX: Monoamine Oxidase MAO-A enzyme inhibition (substrate: Kynuramine). More on the design: species or system BTI-TN-5B1-4. As to conditions: bti-tn-5b1-4; Not Active = under 50% inhibition at 10 µM.

The target in assay [2] is Prostaglandin G/H synthase 1 (Homo sapiens, UniProt P23219). The assay can be described thus: biochemical. The format is tissue-based, Platelet.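 Further: inhibition of COX-1 enzyme activity, with arachidonic acid supplied as substrate; in other assays of this panel Not Active means under 50% inhibition at 10 µM.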
Sequence of Prostaglandin G/H synthase 1 (P23219 whole entry): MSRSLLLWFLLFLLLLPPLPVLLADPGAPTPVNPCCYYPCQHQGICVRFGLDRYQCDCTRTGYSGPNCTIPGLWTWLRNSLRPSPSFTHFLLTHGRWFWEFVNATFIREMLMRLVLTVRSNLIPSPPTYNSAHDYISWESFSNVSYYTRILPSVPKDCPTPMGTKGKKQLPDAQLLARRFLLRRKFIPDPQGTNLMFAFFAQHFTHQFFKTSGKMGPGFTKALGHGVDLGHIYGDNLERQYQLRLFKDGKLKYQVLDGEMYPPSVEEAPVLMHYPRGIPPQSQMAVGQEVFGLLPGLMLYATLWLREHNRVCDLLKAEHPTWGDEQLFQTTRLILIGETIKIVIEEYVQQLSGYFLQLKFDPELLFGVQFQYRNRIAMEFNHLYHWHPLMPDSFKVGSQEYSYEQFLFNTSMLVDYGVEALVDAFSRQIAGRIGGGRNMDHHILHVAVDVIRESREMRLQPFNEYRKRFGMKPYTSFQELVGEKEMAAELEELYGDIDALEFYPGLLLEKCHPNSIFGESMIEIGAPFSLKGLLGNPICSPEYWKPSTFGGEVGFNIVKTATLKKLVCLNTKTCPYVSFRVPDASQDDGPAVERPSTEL
The target of assay [3] is T2, Estrogen receptor (Homo sapiens, UniProt P03372). Further: in other assays of this panel Not Active means under 50% inhibition at 10 µM.
T2 sequence (P03372 whole entry): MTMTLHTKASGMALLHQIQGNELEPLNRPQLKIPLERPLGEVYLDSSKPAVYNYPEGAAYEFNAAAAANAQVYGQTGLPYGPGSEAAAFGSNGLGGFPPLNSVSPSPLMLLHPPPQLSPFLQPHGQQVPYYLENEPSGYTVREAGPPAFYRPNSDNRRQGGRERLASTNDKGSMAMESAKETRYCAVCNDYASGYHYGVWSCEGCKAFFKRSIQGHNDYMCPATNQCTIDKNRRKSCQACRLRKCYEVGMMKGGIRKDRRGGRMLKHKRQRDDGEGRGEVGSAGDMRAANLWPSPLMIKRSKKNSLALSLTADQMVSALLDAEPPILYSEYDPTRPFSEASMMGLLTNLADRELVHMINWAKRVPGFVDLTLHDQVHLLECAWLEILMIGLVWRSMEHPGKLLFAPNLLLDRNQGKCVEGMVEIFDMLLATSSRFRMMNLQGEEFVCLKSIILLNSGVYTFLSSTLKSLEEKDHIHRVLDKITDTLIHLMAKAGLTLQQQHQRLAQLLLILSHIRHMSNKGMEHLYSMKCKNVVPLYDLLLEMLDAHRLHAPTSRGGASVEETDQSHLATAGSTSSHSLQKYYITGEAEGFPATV
As to conditions: sf9.

Assay [4] deals with T3, Vasoactive intestinal polypeptide receptor 1 (Homo sapiens, UniProt P32241).
T3 sequence (P32241 whole entry): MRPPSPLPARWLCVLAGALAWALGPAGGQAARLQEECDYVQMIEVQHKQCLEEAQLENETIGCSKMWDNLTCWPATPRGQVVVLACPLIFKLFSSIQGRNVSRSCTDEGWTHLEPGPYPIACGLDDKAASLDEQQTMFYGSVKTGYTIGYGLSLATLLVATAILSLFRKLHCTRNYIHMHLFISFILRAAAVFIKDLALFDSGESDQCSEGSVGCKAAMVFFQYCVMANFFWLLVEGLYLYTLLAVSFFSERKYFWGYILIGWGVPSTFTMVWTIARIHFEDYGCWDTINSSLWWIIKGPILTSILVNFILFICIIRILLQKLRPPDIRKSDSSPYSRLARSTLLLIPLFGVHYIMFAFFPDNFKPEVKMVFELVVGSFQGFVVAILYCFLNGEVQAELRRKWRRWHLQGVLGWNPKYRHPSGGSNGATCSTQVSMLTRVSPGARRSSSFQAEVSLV
The class given is cell membranes, Membrane. As to conditions: ht-29.

Assay [5] addresses Histamine H2 receptor (Homo sapiens, UniProt P25021). The class given is cell membranes, CHO-K1, Membrane. As to conditions: cho-k1.
Assay [6] is described as follows: DRUGMATRIX: Purinergic P2X radioligand binding (ligand: [3H] alpha, beta-Methylene-ATP). The conditions noted are these: Not Active = under 50% inhibition at 10 µM. The class given is cell membranes, Oryctolagus cuniculus, New Zealand albino, Urinary bladder, Membrane.

IC50 and Ki data for 10 molecules are collected here from ChEMBL document CHEMBL1909046, “DrugMatrix in vitro pharmacology data”.

Sequence of Histamine H2 receptor (P25021 whole entry): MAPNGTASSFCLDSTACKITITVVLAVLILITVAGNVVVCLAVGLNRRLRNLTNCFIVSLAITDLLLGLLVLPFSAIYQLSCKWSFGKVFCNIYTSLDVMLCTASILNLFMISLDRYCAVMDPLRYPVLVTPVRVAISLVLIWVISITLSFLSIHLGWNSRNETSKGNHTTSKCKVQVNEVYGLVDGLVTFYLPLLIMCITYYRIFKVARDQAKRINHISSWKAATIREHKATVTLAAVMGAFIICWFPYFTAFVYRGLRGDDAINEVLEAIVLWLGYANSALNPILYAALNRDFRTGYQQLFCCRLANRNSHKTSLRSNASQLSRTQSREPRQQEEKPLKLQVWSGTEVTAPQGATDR

Usually IC50 stands for the concentration that inhibits the measured activity by half. For `COc1cc2nc(N3CCN(C(=O)c4ccco4)CC3)nc(N)c2cc1OC` [PRAZOSIN], the IC50 entry in assay [1], in assay [2] (platelet), in assay [3], in assay [4], in assay [5] and in assay [6] was “Not Active” in each case. The Ki entry in assay [6] was “Not Active”.

Take `C[C@]12C=CC(=O)C=C1CC[C@@H]1[C@@H]2[C@@H](O)C[C@@]2(C)[C@H]1CC[C@]2(O)C(=O)CO` [PREDNISOLONE]: the IC50 entry in assay [1], in assay [2] (platelet), in assay [3], in assay [4], in assay [5] and in assay [6] was “Not Active” throughout. Further, the Ki result in assay [6] is on record as “Not Active”.

Regarding `CC(=O)[C@H]1[C@H](C#N)C[C@H]2[C@@H]3CC=C4C[C@@H](O)CC[C@]4(C)[C@H]3CC[C@@]21C` [PREGNENOLONE CARBONITRILE], the IC50 result in assay [1], in assay [2] (platelet), in assay [3], in assay [4], in assay [5] and in assay [6] was “Not Active” each time. Further, the Ki entry in assay [6] was “Not Active”.

In the case of `CC(C)c1cccc(C(C)C)c1O` [PROPOFOL], the IC50 result is “Not Active” in assay [1]; 3.83 µM in assay [2] (read-out: IC50); “Not Active” in assay [3]; “Not Active” in assay [4]; “Not Active” in assay [5]; “Not Active” in assay [6]. In assay [6], the Ki result was “Not Active”.

For `Oc1cccc(O)c1O` [PYROGALLOL], the IC50 result in assay [1], in assay [2] (platelet), in assay [3], in assay [4], in assay [5] and in assay [6] was “Not Active” in each case. Moreover, the Ki result in assay [6] is on record as “Not Active”.

Consider AURANOFIN, for which the IC50 result in assay [1], in assay [2] (platelet), in assay [3], in assay [4], in assay [5] and in assay [6] was “Not Active” throughout. Besides, the Ki result in assay [1], in assay [2] (platelet), in assay [3], in assay [4], in assay [5] and in assay [6] was “Not Active” throughout.

Consider GADOPENTETATE DIMEGLUMINE, for which the IC50 entry in assay [1], in assay [2] (platelet), in assay [3], in assay [4], in assay [5] and in assay [6] was “Not Active” each time. Further, the Ki entry in assay [1], in assay [2] (platelet), in assay [3], in assay [4], in assay [5] and in assay [6] was “Not Active” each time.

On to GENTAMICIN, for which the IC50 result in assay [1], in assay [2] (platelet), in assay [3], in assay [4], in assay [5] and in assay [6] was “Not Active” in each case. Moreover, the Ki entry in assay [1], in assay [2] (platelet), in assay [3], in assay [4], in assay [5] and in assay [6] was “Not Active” throughout.

Consider GRAMICIDIN, for which the IC50 result in assay [1], in assay [2] (platelet), in assay [3], in assay [4], in assay [5] and in assay [6] was “Not Active” each time. Also, the Ki entry in assay [1], in assay [2] (platelet), in assay [3], in assay [4], in assay [5] and in assay [6] was “Not Active” each time.

Turning to NYSTATIN, the IC50 result in assay [1], in assay [2] (platelet), in assay [3], in assay [4], in assay [5] and in assay [6] was “Not Active” in each case. The Ki result in assay [1], in assay [2] (platelet), in assay [3], in assay [4], in assay [5] and in assay [6] was “Not Active” in each case.
